In patent publication US20250243218A1, “NOVEL CARBAMATE COMPOUND AND USE THEREOF” (CHENGDU SHIBEIKANG BIOMEDICAL TECHNOLOGY CO., LTD., priority 2022, published 2025):

Experiments:
[1] = Pharmacokinetic study in SD rats, 2-Oxo-clopidogrel in plasma by LC/MS/MS; type: in vivo; settings: 2-Oxo-clopidogrel in plasma, SD rats, single dose at same molar amount (Table 3: iv.; text: gavage), n = 6, mean ± SD
Text: After being administered via single gavage at the same molar amount, the pharmacokinetic characteristics of each compound were investigated, and the main pharmacokinetic parameters were compared.
Each test compound was accurately weighed separately into a clean drug container, dissolved with appropriate amount of Solutol, shaken by vortex, added with purified water, ultrasonicated, and shaken by vortex until the compound was completely dissolved. All the formulations were freshly prepared on the day of administration.
Thirty healthy adult SD rats were administered via gavage.
Grouping and Fasting: SD rats were randomly grouped, with 6 rats per group, and administered with the corresponding compounds via gavage according to Table 3.
Sample Collection and Processing: 0.2 ml of blood was collected at different time points of before (0 h) and 5 min, 15 min, 30 min, 1 h, 2 h, 4 h, 8 h, and 24 h after the administration. After the anticoagulation with EDTA-K2 was completed, the blood was centrifuged at 4° C. for 5 min, and then the plasma was separated and stored at −80° C. for later measurement.
Measurement: The blood drug concentration of 2-Oxo-clopidogrel in all PK plasma samples was measured by LC/MS/MS method, and the pharmacokinetic parameters of individual compounds were calculated by using software WinNonlin 7.2.

[2] = Solubility study; type: physicochemical; settings: 25° C. to 30° C.
Description: Samples of the example compound 2 and comparative example 2 (Vicagrel) were accurately weighed. Under the condition of 25° C. to 30° C., 1 ml of physiological saline and 1 ml of a buffer (pH 1.2) were taken, and added with 10 mg of each compound, respectively. The compound 2 of the present disclosure had excellent solubility, which can satisfy the demand for the formulation into an injection with an effective concentration in clinical, while the solubility of the comparative example 2 was extremely low and it cannot satisfy the demand for injection, and the addition of additional solubilizer may pose potential safety risks.

[3] = biological target: T1, hERG potassium channel (Homo sapiens, UniProt Q12809); test: cell-based; settings: manual patch-clamp, stably overexpressed hERG channel; read-out: IC50 (μM), inhibition of cardiac hERG potassium channel
T1 construct: expressed in transfected cells
T1 sequence (Q12809 whole entry): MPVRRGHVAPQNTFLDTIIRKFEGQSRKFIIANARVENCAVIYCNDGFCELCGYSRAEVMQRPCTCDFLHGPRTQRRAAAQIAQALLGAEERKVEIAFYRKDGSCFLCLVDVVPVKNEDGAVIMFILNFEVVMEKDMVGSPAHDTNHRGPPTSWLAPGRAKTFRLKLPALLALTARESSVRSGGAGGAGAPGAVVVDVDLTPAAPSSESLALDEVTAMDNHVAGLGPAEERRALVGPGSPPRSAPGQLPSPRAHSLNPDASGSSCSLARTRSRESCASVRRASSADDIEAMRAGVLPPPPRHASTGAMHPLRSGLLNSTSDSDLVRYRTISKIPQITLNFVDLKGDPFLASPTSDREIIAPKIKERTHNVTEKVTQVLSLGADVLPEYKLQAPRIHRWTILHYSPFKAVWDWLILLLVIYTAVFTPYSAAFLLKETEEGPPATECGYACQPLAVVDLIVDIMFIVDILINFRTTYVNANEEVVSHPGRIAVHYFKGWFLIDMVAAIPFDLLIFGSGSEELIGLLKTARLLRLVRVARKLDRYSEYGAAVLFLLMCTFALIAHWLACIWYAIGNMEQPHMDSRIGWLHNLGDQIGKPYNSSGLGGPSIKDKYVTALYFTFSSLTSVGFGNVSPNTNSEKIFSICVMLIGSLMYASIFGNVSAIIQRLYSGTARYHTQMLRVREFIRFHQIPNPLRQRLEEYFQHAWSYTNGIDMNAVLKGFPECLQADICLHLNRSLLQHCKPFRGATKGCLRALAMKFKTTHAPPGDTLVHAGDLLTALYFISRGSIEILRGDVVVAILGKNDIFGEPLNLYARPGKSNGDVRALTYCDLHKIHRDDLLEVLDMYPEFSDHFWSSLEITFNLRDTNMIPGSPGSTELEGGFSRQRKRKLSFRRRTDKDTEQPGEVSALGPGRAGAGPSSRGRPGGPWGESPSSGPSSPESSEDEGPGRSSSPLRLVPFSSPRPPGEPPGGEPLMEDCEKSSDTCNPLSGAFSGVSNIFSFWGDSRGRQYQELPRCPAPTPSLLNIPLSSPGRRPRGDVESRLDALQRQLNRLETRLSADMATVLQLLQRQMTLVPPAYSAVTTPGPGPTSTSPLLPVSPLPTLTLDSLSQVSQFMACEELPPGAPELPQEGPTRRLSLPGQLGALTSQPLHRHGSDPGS
Text: Test Example 2: Effect of Compounds on Current in Stably Overexpressed hERG Channel

[4] = Influencing factor test (high temperature, high humidity, light); type: physicochemical
Description: Test Methods: The samples of the compound 2 and comparative example 2 (Vicagrel) were weighed and placed in weighing bottles, respectively, and the weighing bottles were placed under the conditions of high temperature (60° C.), high humidity (RH 80%), and light (5000 Lux), respectively.

[5] = test system: rabbit blood cells; test: In vitro hemolysis test; type: cell-based; settings: compound 2 injection, 2% red blood cell suspension
Description: One Adult Big White-Eared Rabbit (Male)
(1) After the rabbit was anesthetized by injection of sodium pentobarbital via the marginal ear vein at about 30 mg/kg, about 20 ml of blood was collected from the heart into an appropriate container.
(2) A stirrer (or glass bead) was placed in the container, the blood was stirred at a slow speed for a few minutes to remove the fibrinogen in the blood so as to obtain defibrinated blood.
(3) About 10 times the amount of physiological saline was added, mixed evenly by shaking and aliquoted into centrifuge tubes. The tubes were centrifuged at 1000 to 2000 rpm for 15 min (the rotational speed and time for centrifugation could be adjusted according to the post-centrifugation situation due to the difference of centrifuge tubes in size), and then the supernatants were removed.
(5) The obtained red blood cells were prepared into a 2% suspension with physiological saline.

[6] = test system: ear marginal vein of the rabbit; test: Vascular irritation assay; type: in vivo
Description: Four Japanese Big-Ear White Rabbit (about 2 kg), 2♀/2♂ (2 Female/2 Male)
The intra-individual left/right comparison method was used. The compound 2 low dose injection and compound 2 high dose injection groups were set, with 2 rabbits in each group, half male and half female. The compound 2 injections were administered by injection into the ear marginal veins of right ears of the rabbits in the compound 2 low and high dose groups, with administration doses of 2.5 mg/kg and 7.5 mg/kg, respectively, and with the same administration volume of 5 ml/kg; and the corresponding administration concentrations were 0.5 mg/ml and 1.5 mg/ml, respectively. The same administration volume of sodium chloride injection as the negative control was administered by injection into the ear marginal veins of left ears of the rabbits in the compound 2 low and high dose groups. The administration was carried out by intravenous infusion for 30 min. […] The administration was performed once daily for a total of 7 consecutive days.
At 72 h and at the end of a 14-day recovery period after the final administration, half of the animals in each group […] were sacrificed, respectively. Marginal ear tissue samples were cut from the injection site and the proximal end of the marginal ear vein respectively and collected. The injection sites were observed by naked eyes for the response conditions to irritation. The obtained tissues were fixed with 10% neutral formalin and conventionally sectioned for histopathological examination.

[7] = test system: ADP-induced platelet aggregation in rats; test: Antiplatelet aggregation effect: ADP-induced platelet aggregation in PRP of rats after iv administration; type: in vivo; settings: single iv at the same molar dose, blood 3 h after administration, ADP final 20 μM
Text: 1. Test objective: Evaluation and comparison of the antiplatelet aggregation treatment effect of each compound after administration at the same molar amount
70 rats were randomly and evenly grouped into 7 groups, i.e., solvent control group, comparative example 1 (2-Oxo-clopidogrel) group, comparative example 2 (Vicagrel) group, compound 1 group, compound 2 group, compound 7 group and compound 8 group.
Rats were anesthetized by intraperitoneal injection of 1.5% sodium pentobarbital.
The anesthetized animals were transferred to an operating platform.
The rats were injected with anesthetic, and fixed on the operating platform in a supine position after the whole body of the rat became soft. After routine disinfection, the abdomen of the rat was incised along the abdominal midline using surgical scissors to open the abdominal cavity. The adipose tissue around the blood vessels was gently separated with a small forceps, and the excess adipose tissue covering the blood vessels was then wiped and removed with the cotton ball to make the blood vessels clearly visible (the abdominal aorta is located anterior to the vertebral column, and the abdominal vein appears thicker and darker in color than the abdominal aorta). The blood vessel was first fixed to prevent it from moving as much as possible. The left thumb and index finger fixed the adipose tissue and other organs on both sides of the blood vessel, while the ring finger pressed on the blood vessel at the upper end of the needle insertion point to lower the blood pressure, which can prevent blood spurting. The puncture needle was held with the right hand, with the bevel of the needle tip facing downward. The needle was inserted at an angle of about 30 degrees and advanced towards the heart to a suitable depth of about 5 mm. Once the blood had started to enter the needle via its tip, the other end of the blood collection needle was inserted into the vacuum tube. After the insertion of needle, the needle tip could be clamped with a hemostatic clip to prevent it from puncturing the blood vessel if the rat struggled due to insufficient anesthesia.
Three hours after the administration, the rats were anesthetized with sodium pentobarbital. Then blood was collected from the abdominal aorta, added with 3.8% sodium citrate (1:9) as an anticoagulant, mixed evenly and centrifuged at 200 g for 10 min. The supernatant was harvested to obtain the platelet-rich plasma (PRP), and the residual plasma was then centrifuged at 1600 g for 15 min to obtain the resulting supernatant as platelet-poor plasma (PPP).
Platelet aggregation rate was measured using a platelet aggregometer (model: Agg RAM, Helena, USA). The PPPs corresponding to the PRPs to be tested in each channel were first used to correct the light transmission, and the PPPs were removed after the correction. A cuvette added with 225 μl of PRP to be tested was then placed in each channel, and added with a stirrer, then ADP (with a final concentration of 20 μM). The platelet aggregometer immediately began to measure the platelet aggregation rate.

Question: Which “AUC0-last (h*ng/ml)” value [1] does the source give for COC(=O)[C@H](c1ccccc1Cl)N1CCc2sc(OC(=O)N3CCN(C)CC3)cc2C1.O=C(O)/C=C/C(=O)O [Compound 2, (S)-5-(1-(2-chlorophenyl)-2-methoxy-2-oxyethyl)-4,5,6,7-tetrahydrothieno[3,2-c]pyridin-2-yl 4-methylpiperazine-1-carboxylate fumarate] here?
Answer: 110.15 ± 32.62** h*ng/ml

Question: And the “Cmax” value [1]?
Answer: 76.82 ± 21.69 ng/mL

Question: What about the “T1/2” value [1] of the same molecule?
Answer: 1.98 ± 0.25 h

Question: What about the “Tmax” value [1] of the same molecule?
Answer: 0.45 ± 0.13 h

Question: What about the “Solubility, pH 1.2 buffer” value ([2]; 10 mg compound added to 1 ml buffer (pH 1.2)) of the same molecule?
Answer: >10 mg

Question: And the “Solubility, Physiological saline(1 ml)” value ([2]; 10 mg compound added to 1 ml physiological saline)?
Answer: >10 mg

Question: And the IC50 [3]?
Answer: 18.6 µM

Question: And the “change in content, appearance and shape” value ([4]; 10 days under each of high temperature, high humidity and light)?
Answer: little change in content and no obvious change in appearance and shape

Question: What about the “content, Day 0” value ([4]; Day 0) of the same molecule?
Answer: 98.39%

Question: And the “content, High humidity (Day 10)” value ([4]; high humidity (RH 80%), 10 days)?
Answer: 97.83%

Question: What about the “content, High temperature (Day 10)” value ([4]; high temperature (60° C.), 10 days) of the same molecule?
Answer: 97.84%

Question: What about the “content, Light (Day 10)” value ([4]; light (5000 Lux), 10 days) of the same molecule?
Answer: 96.09%

Question: And the “hemolysis of rabbit blood cells” value ([5]; high concentration 2.5 mg/ml)?
Answer: neither the compound 2 injection at low concentration (0.5 mg/ml) nor the compound 2 injection at high concentration (2.5 mg/ml) caused hemolysis

Question: What about the “hemolysis of rabbit blood cells” value ([5]; low concentration 0.5 mg/ml) of the same molecule?
Answer: neither the compound 2 injection at low concentration (0.5 mg/ml) nor the compound 2 injection at high concentration (2.5 mg/ml) caused hemolysis

Question: What about the “vascular irritation effect on the ear marginal vein of the rabbit (overall determination)” value ([6]; high concentration 1.5 mg/ml) of the same molecule?
Answer: no vascular irritation effect

Question: What about the “observation of ear marginal vein on the administered side at day 2 of the recovery period” value ([6]; high concentration 1.5 mg/ml, naked eyes) of the same molecule?
Answer: congestion of the ear marginal vein on the administered side was observed by naked eyes

Question: What about the “vascular irritation effect on the ear marginal vein of the rabbit (overall)” value ([6]; low concentration 0.5 mg/ml, observed by naked eyes) of the same molecule?
Answer: no vascular irritation effect

Question: And the “Platelet aggregation rate (%)” value ([7]; solvent control 76.06 ± 3.29)?
Answer: 21.18 ± 8.51 %

Question: And the “Platelet aggregation rate (%)” value ([7]; solvent control 76.06 ± 3.29, listed as compound 2)?
Answer: 21.18±8.51%
